This note sets out measurements from US20240025849A1 (MAX DELBRÜCK-CENTRUM FÜR MOLEKULARE MEDIZIN IN DER …, priority 2020, published 2024).

Molecules are shown by their SMILES. “Also recorded” adds a separate entry of the source.

Series [1] has as its system primary cultured microglial cells. Kind of series: Flow cytometry-based phagocytosis assay. Format: cell-based, mouse. The following applies: 2.5 μM C1. The method, then:
Flow cytometry-based phagocytosis assay. 10^6 primary cultured microglial cells were seeded into 3.5 cm dishes in plain medium overnight at standard conditions. The cells were treated for 1 hour with 2.5 μM C1 in DMSO, 125×10^−5 v/v DMSO respectively, or plain medium only. To stimulate microglia, LPS (1 μg/ml) was added for additional 24 hours. Fluoresbrite Carboxylate Microspheres (BrightBlue, 4.5 μm, Polyscience, Niles, USA) were coated with fetal calf serum for 30 min at room temperature, and subsequently centrifuged at 3000 g for 2 min at room temperature. The beads were resuspended in HBSS at a final concentration of 2×10^6 beads per ml. The microglia culture was washed once with HBSS (37° C.) before 1 ml bead solution was applied. The cells were incubated with the beads for 30 min at 37° C. Afterwards, microglia were washed twice with ice cold HBSS, scratched off and pulled down at 500 g for 5 min. The cells were resuspended in a propidium iodide solution (1:200 in HBSS) to stain dead cells. The stained cells were transferred to a BD LSRFortessa Flow cytometer (BD Bioscience, Sparks, USA). The median intensity of the bright blue beads was calculated using Flowlo v10 software (Ashland, USA). The data of each experiment was normalised to the unstimulated media control.
(In general: A flow cytometer gives signals particle by particle.)

In series [2] the test system is oligodendrocyte cell line OLN-93. Description: Propidium iodide based proliferation and cell death assay in OLN-93 cells. Conditions: 2.5 μM C1, 48 hours, unstimulated. The method, then:
Cell culture of immortalized cell lines: microglia cell line BV2, and oligodendrocyte cell line OLN-93. The immortalized murine microglia cell line BV2 (Blasi et al., 1990) and the oligodendrocyte cell line OLN-93 (Richter-Landsberg and Heinrich, 1996) were incubated in T75 flasks with plain medium. The cells were split every 2 to 3 days at the dilution 1:10 before they reached confluence. To do so, the cells were washed twice with PBS, followed by up to 5 min of trypsination. The trypsination was stopped using plain medium. The cells were centrifuged at 300 g for 10 min at 4° C., the supernatant was discarded, and the cells were resuspended in new medium and seeded into a new flask.
Propidium iodide based proliferation and cell death assay. To determine the relative proliferation and cell death, the cells were seeded into a […], let adhere for 24 hours and afterwards treated for additional 48 hours. The supernatant was removed, and the cells were washed carefully with 37° C. […] The intensity of the propidium iodide signal of the dead cells was measured using a microplate reader. Afterwards, all cells were killed with a 10 min incubation of 10% DMSO and the propidium iodide signal of all cells was measured. […] The percentage of dead cells was calculated by dividing the dead-cell-signal by the all-cell-signal. Proliferation was calculated as a relative value to the plain medium control.

Series [3] concerns primary cultured neonatal microglia. Kind of series: AlamarBlue assay (metabolic activity / cell viability) in microglia. The class given is cell-based, mouse. The protocol: (§1) Primary cultured neonatal microglia. For preparation of cultured neonatal microglia, P0-P3 mice were used. 10 brains were extracted, meninges and cerebellum were removed and put on ice with Hank's balanced salt solution (HBSS). The dissected brains were washed 3 times before adding 400 μL trypsin (0.1 mg/L) and DNAse (5 μg/L) in phosphate buffered saline (PBS). After 2 min of incubation with this solution, the reaction was blocked by adding plain medium. After removal of the medium, 1 mg DNAse was added and the cells were mechanically dissociated, with a Pasteur pipette followed by a glass pipette. The cells were centrifuged for 10 min at 129 g at 4° C. The supernatant was discarded. The pellet was resuspended in plain medium and plated (2.5 brains/flask) in Poly-L-Lysine coated flasks. The cells were washed after 2 days with PBS and incubated for another 7 days in plain medium. Afterwards the medium was replaced by plain medium with 33% L929 conditioned medium. After 2 days, cells were harvested by shaking them for 30 min at 150 rpm. The supernatant was centrifuged for 10 min at 129 g at 4° C. The cells were plated into a 96 well plate (100 000 cells/well, 200 μL medium per well). This procedure could be repeated 2 times with a 2 day interval.
Concentration-dependent validation and viability determination. Concentrated stock solutions of compounds identified from primary screening were rearranged onto anew 384-well plate, and 10 sequential 2-fold serial dilutions were created across multiple plates in DMSO. Starting from these diluted compound mother plates, the protocol was repeated exactly as for primary screening to span the concentration range between 5 μM and 20 nM. In order to obtain the 10 μM and 20 μM concentration points, 1000 n1 and 2000 n1 were transferred from the 500 μM pre-dilution plate, respectively. Each concentration was measured in duplicate. Normalized percent activities were plotted against the compound concentration to obtain the IC50 values. To obtain also information about the impact of compounds on cell viability, a second batch of plates was prepared as described above, but 5 μl of Alamar Blue solution was added after 48 hours instead of Griess reagent and incubation was continued for additional 4 hours at 37° C. Finally, the resorufin fluorescence was detected at an excitation wavelength of 530 nm and emission of 570 nm. Since no control samples were present on the assay plate for data normalization of cell viability, the raw data values were added on the second y-scale to the IC50 plots.
AlamarBlue assay. […] The conversion of resazurin to resorufin was measured by absorbance (absorbance wavelength of 570 nm and a reference wavelength of 600 nm) after 3 hours.

The test system is the same in series [4]. Description: Propidium iodide based proliferation and cell death assay in microglia. The following applies: 2.5 μM C1, 48 hours, unstimulated. The protocol: as §1, with “Afterwards the medium was replaced by plain medium with 33% L929 conditioned medium. After 2 days, cells were harvested by shaking them for 30 min at 150 rpm. The supernatant was centrifuged for 10 min at 129 g at 4° C. The cells were plated into a 96 well plate (100 000 cells/well, 200 μL medium per well). This procedure could be repeated 2 times with a 2 day interval.” left out
Propidium iodide based proliferation and cell death assay. […] The intensity of the propidium iodide signal of the dead cells was measured using a microplate reader. Afterwards, all cells were killed with a 10 min incubation of 10% DMSO and the propidium iodide signal of all cells was measured. […] The percentage of dead cells was calculated by dividing the dead-cell-signal by the all-cell-signal. Proliferation was calculated as a relative value to the plain medium control.

For the compound `COc1ccc(NC(=O)C(NC(=O)C2CCCN2C(=O)OCc2ccccc2)c2ccc(OC)cc2)cc1` (stereo not shown) [C1], the “phagocytic activity, basal conditions” value in series [1] is on record as “neither C1 nor DMSO changes microglial phagocytosis significantly; also recorded: did not alter”. In series [1] (1 μg/mL LPS 24 hours), the “increase of phagocytosis upon LPS compared to own unstimulated control” value is “+45%” and the “phagocytic activity, LPS stimulated conditions” value is listed as “no significant differences; also recorded: did not alter”. In series [2], the “OLN-93 cell death rate” value is recorded as “no significant effect” and the “proliferation of OLN-93 cells” value was “did not show an effect; also recorded: Neither C1 nor DMSO changed the proliferation”. In series [3] (2 nM to 20 μM, 1 μg/ml LPS 48 h), the cell viability result was “no effects on cell viability”. The metabolic activity in series [3] (20 μM C1, 1 μg/mL LPS 48 h) is given as 84%±3.99. In addition, in series [3] (C1 alone 0.025, 0.25, 2.5 μM, 48 hours), the “metabolic activity in unstimulated microglia” value is on record as “did not show any significant difference; also recorded: nor did it interfere with the metabolic activity”. For the same compound, the “metabolic activity (AlamarBlue)” value in series [3] (HTS setup, LPS stimulated) was “remained stable”. In addition, in series [4], the “percentage of dead cells in microglia” value stood at 8.49%.
